Data reported in patent EP4810052A2, “HCRHR2 SELECTIVE POLYPEPTIDES” (Gubra A/S, priority 2023, dated 2026).
Read-outs that look alike come from different tables or passages of the source. Starred links: 1 amine or outer side, 2 acyl side, 3 side chain; linkers in the order of their positions; H or OH if unused. Non-standard residues stand in square brackets, D forms with d. Residues, ends and D or L forms follow the SMILES beside them. Groups on a side chain read outwards from the residue. *: point of attachment. C20 diacid = O=C(O)CCCCCCCCCCCCCCCCCCC(=O)*; γGlu = O=C(O)[C@H](CCC(=O)[*:2])N[*:1]; NMeI = CC[C@H](C)[C@H](NC)C(=O)O; Nle = CCCC[C@H](N)C(=O)O; AEEA = NCCOCCOCC(=O)O; Aib = CC(C)(N)C(=O)O

What was measured:
hCRHR1 = molecular target: T1, hCRHR1 (Homo sapiens, UniProt P34998); experiment: HTRF cAMP assay, determination of hCRHR1 potency (peptide libraries 5 conc., purified peptides 11 conc.); format: cell-based
T1 sequence (P34998 24-415): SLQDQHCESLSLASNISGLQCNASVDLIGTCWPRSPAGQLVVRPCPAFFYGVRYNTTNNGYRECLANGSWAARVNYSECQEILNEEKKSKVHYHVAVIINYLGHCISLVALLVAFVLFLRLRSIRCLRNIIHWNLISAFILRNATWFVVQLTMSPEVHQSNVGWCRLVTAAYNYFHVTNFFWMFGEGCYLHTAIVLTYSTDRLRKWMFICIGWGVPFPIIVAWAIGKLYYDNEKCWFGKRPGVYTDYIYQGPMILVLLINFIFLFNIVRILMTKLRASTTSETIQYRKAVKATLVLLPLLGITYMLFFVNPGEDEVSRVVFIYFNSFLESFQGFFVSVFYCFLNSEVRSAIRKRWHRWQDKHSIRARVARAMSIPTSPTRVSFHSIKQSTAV
In short: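 CHO-K1 cells stably expressing human CRHR1, thawed from frozen stocks just before use, were stimulated in suspension with agonist peptides. cAMP was measured by HTRF competitive immunoassay (cryptate anti-cAMP antibody vs d2-cAMP).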

hCRHR2 = molecular target: T2, hCRHR2 (Homo sapiens, UniProt Q13324); experiment: HTRF cAMP assay, determination of hCRHR2 potency (peptide libraries 5 conc., purified peptides 11 conc.); format: cell-based
T2 sequence (Q13324 1-411): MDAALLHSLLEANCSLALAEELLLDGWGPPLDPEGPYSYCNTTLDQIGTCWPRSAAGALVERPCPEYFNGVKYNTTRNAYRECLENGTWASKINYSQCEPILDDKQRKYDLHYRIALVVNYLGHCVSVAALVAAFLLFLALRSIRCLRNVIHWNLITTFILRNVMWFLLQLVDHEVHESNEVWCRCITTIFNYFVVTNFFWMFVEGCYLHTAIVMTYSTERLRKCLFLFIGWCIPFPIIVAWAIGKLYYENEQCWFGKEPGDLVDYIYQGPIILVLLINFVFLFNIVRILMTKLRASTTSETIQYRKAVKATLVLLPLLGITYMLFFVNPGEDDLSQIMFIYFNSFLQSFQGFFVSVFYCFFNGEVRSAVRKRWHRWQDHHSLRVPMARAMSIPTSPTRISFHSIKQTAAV
In short: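 CHO-K1 cells stably expressing human CRHR2, thawed from frozen stocks just before use and run in suspension; cAMP measured by competitive HTRF immunoassay (cryptate anti-cAMP, d2-cAMP). Agonist peptides tested at 5 (libraries) or 11 (purified) concentrations; EC50 from sigmoid variable-slope nonlinear regression.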

[1] = Table 3, matched molecular pairs X^38 L vs Nle, peptide library of Example 4, read-out: hCRHR1 pEC50 (converted)
[2] = Table 3, matched molecular pairs X^38 L vs Nle, peptide library of Example 4, read-out: hCRHR2 pEC50 (converted)

EC50 (hCRHR1; [1]) [nM]	EC50 (hCRHR2; [2]) [nM]	Structure (SMILES)	further results
158000	3.16	CC[C@H](C)[C@H](N)C(=O)N[C@H](C(=O)N[C@@H](CC(C)C)C(=O)N[C@@H](CO)C(=O)N[C@@H](CC(C)C)C(=O)N[C@@H](CC(=O)O)C(=O)N[C@H](C(=O)N1CCC[C@H]1C(=O)N[C@H](C(=O)NCC(=O)N[C@@H](CC(C)C)C(=O)N[C@@H](CC(C)C)C(=O)N[C@@H](CCC(N)=O)C(=O)N[C@H](C(=O)N[C@@H](CC(C)C)C(=O)N[C@@H](CC(C)C)C(=O)N[C@@H](CCC(=O)O)C(=O)N[C@@H](CCC(N)=O)C(=O)N[C@@H](C)C(=O)N[C@@H](CCCNC(=N)N)C(=O)N[C@@H](C)C(=O)N[C@@H](CCCNC(=N)N)C(=O)N[C@@H](C)C(=O)N[C@@H](CC(C)C)C(=O)N[C@@H](CCCNC(=N)N)C(=O)N[C@@H](CCC(N)=O)C(=O)N[C@@H](CCC(=O)O)C(=O)N[C@@H](C)C(=O)N[C@@H](CCCCNC(=O)COCCOCCNC(=O)COCCOCCNC(=O)CC[C@H](NC(=O)CC[C@H](NC(=O)CCCCCCCCCCCCCCCCCCC(=O)O)C(=O)O)C(=O)O)C(=O)N[C@H](C(=O)N[C@@H](CC(N)=O)C(=O)N[C@@H](C)C(=O)N[C@@H](CCC(=O)O)C(=O)N[C@H](C(=O)N[C@@H](CC(C)C)C(=O)N[C@@H](C)C(=O)N[C@@H](CCC(=O)O)C(=O)N[C@H](C(N)=O)C(C)C)[C@@H](C)CC)[C@@H](C)O)[C@@H](C)CC)[C@@H](C)CC)C(C)C)C(C)C [SEQ ID NO: 37] (H-IVLSLDVPIGLLQILLEQARARALRQEAK([AEEA-AEEA-γGlu-γGlu-C20 diacid])TNAEILAEV-NH2)	–
15800	0.631	CC[C@H](C)[C@H](N)C(=O)N[C@H](C(=O)N[C@@H](CC(C)C)C(=O)N[C@@H](CO)C(=O)N[C@@H](CC(C)C)C(=O)N[C@@H](CC(=O)O)C(=O)N[C@H](C(=O)N1CCC[C@H]1C(=O)N[C@H](C(=O)NCC(=O)N[C@@H](CC(C)C)C(=O)N[C@@H](CC(C)C)C(=O)N[C@@H](CCC(N)=O)C(=O)N[C@H](C(=O)N[C@@H](CC(C)C)C(=O)N[C@@H](CC(C)C)C(=O)N[C@@H](CCC(=O)O)C(=O)N[C@@H](CCC(N)=O)C(=O)N[C@@H](C)C(=O)N[C@@H](CCCNC(=N)N)C(=O)N[C@@H](C)C(=O)N[C@@H](CCC(=O)O)C(=O)N[C@@H](CO)C(=O)N[C@@H](C)C(=O)N[C@@H](CCCNC(=N)N)C(=O)N[C@@H](CCC(=O)O)C(=O)N[C@@H](CCC(N)=O)C(=O)N[C@@H](C)C(=O)N[C@@H](CCCCNC(=O)COCCOCCNC(=O)COCCOCCNC(=O)CC[C@H](NC(=O)CC[C@H](NC(=O)CCCCCCCCCCCCCCCCCCC(=O)O)C(=O)O)C(=O)O)C(=O)N[C@H](C(=O)N[C@@H](CC(N)=O)C(=O)N[C@@H](C)C(=O)N[C@@H](CCC(=O)O)C(=O)N[C@H](C(=O)N[C@@H](CC(C)C)C(=O)N[C@@H](C)C(=O)N[C@@H](CCC(=O)O)C(=O)N[C@H](C(N)=O)C(C)C)[C@@H](C)CC)[C@@H](C)O)[C@@H](C)CC)[C@@H](C)CC)C(C)C)C(C)C [SEQ ID NO: 41] (H-IVLSLDVPIGLLQILLEQARAESAREQAK([AEEA-AEEA-γGlu-γGlu-C20 diacid])TNAEILAEV-NH2)	–
–	–	CC[C@H](C)[C@H](N)C(=O)N[C@H](C(=O)N[C@@H](CC(C)C)C(=O)N[C@@H](CO)C(=O)N[C@@H](CC(C)C)C(=O)N[C@@H](CC(=O)O)C(=O)N[C@H](C(=O)N1CCC[C@H]1C(=O)N[C@H](C(=O)NCC(=O)N[C@@H](CC(C)C)C(=O)N[C@@H](CC(C)C)C(=O)N[C@@H](CCC(N)=O)C(=O)N[C@H](C(=O)N[C@@H](CC(C)C)C(=O)N[C@@H](CC(C)C)C(=O)N[C@@H](CCC(=O)O)C(=O)N[C@@H](CCC(N)=O)C(=O)N[C@@H](C)C(=O)N[C@@H](CCCNC(=N)N)C(=O)N[C@@H](C)C(=O)N[C@@H](CCC(=O)O)C(=O)N[C@@H](C)C(=O)N[C@@H](CC(C)C)C(=O)N[C@@H](CCCNC(=N)N)C(=O)N[C@@H](CCC(N)=O)C(=O)N[C@@H](CCC(N)=O)C(=O)N[C@@H](C)C(=O)N[C@@H](CCCCNC(=O)COCCOCCNC(=O)COCCOCCNC(=O)CC[C@H](NC(=O)CC[C@H](NC(=O)CCCCCCCCCCCCCCCCCCC(=O)O)C(=O)O)C(=O)O)C(=O)N[C@H](C(=O)N[C@@H](CC(N)=O)C(=O)N[C@@H](C)C(=O)N[C@@H](CCC(=O)O)C(=O)N[C@H](C(=O)N[C@@H](CC(C)C)C(=O)N[C@@H](C)C(=O)N[C@@H](CCC(=O)O)C(=O)N[C@H](C(N)=O)C(C)C)[C@@H](C)CC)[C@@H](C)O)[C@@H](C)CC)[C@@H](C)CC)C(C)C)C(C)C [compound 58] (H-IVLSLDVPIGLLQILLEQARAEALRQQAK([AEEA-AEEA-γGlu-γGlu-C20 diacid])TNAEILAEV-NH2)	EC50 (hCRHR1; library peptides, matched molecular pairs L vs Nle in position X^38, read-out: Potency hCRHR1 pEC50 (converted)): 100 nM; EC50 (hCRHR2; library peptides, matched molecular pairs L vs Nle in position X^38, read-out: Potency hCRHR2 pEC50 (converted)): 0.316 nM
25.1	0.316	CCCC[C@H](NC(=O)[C@@H](NC(=O)[C@H](CCC(=O)O)NC(=O)[C@H](C)NC(=O)[C@H](CC(N)=O)NC(=O)[C@@H](NC(=O)[C@H](CCCCNC(=O)COCCOCCNC(=O)COCCOCCNC(=O)CC[C@H](NC(=O)CC[C@H](NC(=O)CCCCCCCCCCCCCCCCCCC(=O)O)C(=O)O)C(=O)O)NC(=O)[C@H](C)NC(=O)[C@H](CCC(N)=O)NC(=O)[C@H](CCC(=O)O)NC(=O)[C@H](CCCNC(=N)N)NC(=O)[C@H](CCC(N)=O)NC(=O)[C@H](C)NC(=O)[C@H](CCC(N)=O)NC(=O)[C@H](C)NC(=O)[C@H](CCCNC(=N)N)NC(=O)[C@H](C)NC(=O)[C@H](CCC(N)=O)NC(=O)[C@H](CCC(=O)O)NC(=O)[C@H](CC(C)C)NC(=O)[C@H](CC(C)C)NC(=O)[C@@H](NC(=O)[C@H](CCC(N)=O)NC(=O)[C@H](CC(C)C)NC(=O)[C@H](CC(C)C)NC(=O)CNC(=O)[C@@H](NC(=O)[C@@H]1CCCN1C(=O)[C@@H](NC(=O)[C@H](CC(=O)O)NC(=O)[C@H](CC(C)C)NC(=O)[C@H](CO)NC(=O)[C@H](CC(C)C)NC(=O)[C@@H](NC(=O)[C@@H](N)[C@@H](C)CC)C(C)C)C(C)C)[C@@H](C)CC)[C@@H](C)CC)[C@@H](C)O)[C@@H](C)CC)C(=O)N[C@@H](C)C(=O)N[C@@H](CCC(=O)O)C(=O)N[C@H](C(N)=O)C(C)C [SEQ ID NO: 32] (H-IVLSLDVPIGLLQILLEQARAQAQREQAK([AEEA-AEEA-γGlu-γGlu-C20 diacid])TNAEI[Nle]AEV-NH2)	–
–	–	CCCC[C@H](NC(=O)[C@@H](NC(=O)[C@H](CCC(=O)O)NC(=O)C(C)(C)NC(=O)[C@H](CC(N)=O)NC(=O)[C@@H](NC(=O)[C@H](CCCCNC(=O)COCCOCCNC(=O)COCCOCCNC(=O)CC[C@H](NC(=O)CC[C@H](NC(=O)CCCCCCCCCCCCCCCCCCC(=O)O)C(=O)O)C(=O)O)NC(=O)[C@H](C)NC(=O)[C@H](CCC(N)=O)NC(=O)[C@H](CCC(=O)O)NC(=O)[C@H](CCCNC(=N)N)NC(=O)[C@H](C)NC(=O)[C@H](C)NC(=O)[C@H](CCCNC(=N)N)NC(=O)[C@H](C)NC(=O)[C@H](CCCNC(=N)N)NC(=O)[C@H](C)NC(=O)[C@H](CCC(N)=O)NC(=O)[C@H](Cc1ccccc1)NC(=O)[C@H](CC(C)C)NC(=O)[C@H](CC(C)C)NC(=O)[C@@H](NC(=O)[C@H](CCC(N)=O)NC(=O)[C@H](CC(C)C)NC(=O)[C@H](CC(C)C)NC(=O)CNC(=O)[C@@H](NC(=O)[C@@H]1CCCN1C(=O)[C@@H](NC(=O)[C@H](CC(=O)O)NC(=O)[C@H](CC(C)C)NC(=O)[C@H](CO)NC(=O)[C@H](CC(C)C)NC(=O)[C@@H](NC(=O)[C@@H](NC)[C@@H](C)CC)C(C)C)C(C)C)[C@@H](C)CC)[C@@H](C)CC)[C@@H](C)O)[C@@H](C)CC)C(=O)N[C@@H](C)C(=O)N[C@@H](CCC(=O)O)C(=O)N[C@H](C(N)=O)C(C)C [compound 211] (H-[NMeI]VLSLDVPIGLLQILLFQARARAAREQAK([AEEA-AEEA-γGlu-γGlu-C20 diacid])TN[Aib]EI[Nle]AEV-NH2)	EC50 (hCRHR1; Table 4, library peptides having X^38 = Nle, read-out: hCRHR1 pEC50 (converted)): 79400 nM; EC50 (hCRHR2; Table 4, library peptides having X^38 = Nle, read-out: hCRHR2 pEC50 (converted)): 0.0251 nM
